Source: article PMC4363092 (Journal of medicinal chemistry, 2014)
“Also recorded” adds a separate entry of the source.

Assays:
human NTPDase1,2,3,8 = assay: Inhibition of NTPDase activity, text statements pooled over NTPDase1,2,3,8; assay type: biochemical; conditions: analogue 100 μM, pooled over four NTPDases
P2Y11 receptor = biological target: T1, P2Y11 receptor (Homo sapiens, UniProt Q96G91); assay: [Ca2+]i elevation in 1321N1 astrocytoma cells expressing GFP-P2Y11 receptor; assay type: cell-based; conditions: 1321N1 cells; nr = no response up to 10 μM
T1 sequence (Q96G91 1-374): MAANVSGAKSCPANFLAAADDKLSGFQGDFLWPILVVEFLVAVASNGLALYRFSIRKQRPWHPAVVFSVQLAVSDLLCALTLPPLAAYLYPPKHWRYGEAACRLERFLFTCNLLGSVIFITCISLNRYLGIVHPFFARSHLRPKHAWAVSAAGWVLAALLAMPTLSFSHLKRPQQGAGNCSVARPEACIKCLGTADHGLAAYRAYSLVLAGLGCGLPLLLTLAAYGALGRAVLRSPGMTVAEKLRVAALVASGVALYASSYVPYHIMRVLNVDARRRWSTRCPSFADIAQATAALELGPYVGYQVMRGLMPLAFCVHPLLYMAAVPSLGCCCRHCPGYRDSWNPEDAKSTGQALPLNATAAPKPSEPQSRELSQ

human NTPDase1 [1] = biological target: T2, human NTPDase1 (Homo sapiens, UniProt P49961); conditions: analogue 100 μM as substrate; activity with 100 μM ATP set as 100%
T2 sequence (P49961 1-510): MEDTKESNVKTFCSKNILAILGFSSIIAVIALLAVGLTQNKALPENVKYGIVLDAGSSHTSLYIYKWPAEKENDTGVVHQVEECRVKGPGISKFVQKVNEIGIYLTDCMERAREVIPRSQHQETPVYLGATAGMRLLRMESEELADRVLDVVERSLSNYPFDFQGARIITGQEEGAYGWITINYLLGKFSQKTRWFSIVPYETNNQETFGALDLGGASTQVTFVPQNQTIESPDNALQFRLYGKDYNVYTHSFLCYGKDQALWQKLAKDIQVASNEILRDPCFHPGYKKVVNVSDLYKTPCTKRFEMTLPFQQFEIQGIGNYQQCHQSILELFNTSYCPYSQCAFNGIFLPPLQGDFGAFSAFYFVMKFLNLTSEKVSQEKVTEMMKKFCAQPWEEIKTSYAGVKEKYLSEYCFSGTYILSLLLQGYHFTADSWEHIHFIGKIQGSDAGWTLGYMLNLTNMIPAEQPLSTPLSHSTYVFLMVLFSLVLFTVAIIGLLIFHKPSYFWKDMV

human NTPDase8 = biological target: T3, human NTPDase8 (Homo sapiens, UniProt Q5MY95); conditions: analogue 100 μM as substrate; activity with 100 μM ATP set as 100%
T3 sequence (Q5MY95 1-495): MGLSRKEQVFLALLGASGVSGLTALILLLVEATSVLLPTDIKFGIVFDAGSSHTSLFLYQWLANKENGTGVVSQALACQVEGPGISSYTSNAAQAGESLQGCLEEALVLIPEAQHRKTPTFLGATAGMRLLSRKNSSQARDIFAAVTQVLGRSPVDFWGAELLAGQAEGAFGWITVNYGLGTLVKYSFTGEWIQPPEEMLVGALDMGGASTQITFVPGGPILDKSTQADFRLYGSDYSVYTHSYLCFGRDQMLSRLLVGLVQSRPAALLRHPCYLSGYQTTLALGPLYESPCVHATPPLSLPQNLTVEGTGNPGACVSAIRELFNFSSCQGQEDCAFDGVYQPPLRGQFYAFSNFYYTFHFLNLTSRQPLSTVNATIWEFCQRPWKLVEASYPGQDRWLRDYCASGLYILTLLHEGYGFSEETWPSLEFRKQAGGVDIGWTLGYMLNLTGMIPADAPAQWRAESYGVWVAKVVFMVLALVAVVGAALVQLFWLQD

human NTPDase1 [2] = biological target: T2, human NTPDase1; assay: Inhibition of NTPDase1 activity; assay type: biochemical; conditions: analogue 100 μM, substrate ATP 100 μM

| SMILES | inhibition of ATP hydrolysis by NTPDase1,2,3,8 (human NTPDase1,2,3,8) | EC50 ± SEM (μM), [Ca^2+]i elevation, P2Y11 (P2Y11 receptor) | relative activity (%) ± SD of ATP hydrolysis, NTPDase1 (human NTPDase1 [1]) | relative activity (%) ± SD of ATP hydrolysis, NTPDase8 (human NTPDase8) | inhibition (%) ± SD, human NTPDase1 (human NTPDase1 [2]) |
| --- | --- | --- | --- | --- | --- |
| Nc1ncnc2c1ncn2[C@@H]1O[C@H](CO[P@](O)(=S)OP(=O)(O)C(Cl)(Cl)P(=O)(O)O)[C@@H](O)[C@H]1O [2a] | did not interfere | not agonists; also recorded: inactive; also recorded: not active, nr ^c | 5.3 ± 0.2% | 4.3 ± 0.1% |  |
| Nc1ncnc2c1ncn2[C@@H]1O[C@H](COP(=O)(O)CP(=O)(O)OP(O)(O)=S)[C@@H](O)[C@H]1O [compound 3] |  |  | 5.3 ± 0.2% | 5.2 ± 0.2% | 60% |
